Test results taken from patent US20200060276A1, “THIAZOLE COMPOUND AND HERBICIDE” (OAT Agrio Co., Ltd., priority 2017, published 2020).

Legend:
Type in all cases: in vivo
[1] = test system: Echinochloa crus-galli (L.) P. Beauv. var. formosensis Ohwi; assay: Test for Herbicidal Effect in Flooding Treatment (#1), ECHDG; details: flooding treatment at seeding, dose 2 kg/ha, visual observation on day 21
Outline: (§1)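 Visual scores from 0 (<10% inhibition) to 5 (≥90% or complete withering) were taken 21 days after treatment of glasshouse-grown plants. Seeds were sown in soil flooded for 24 h beforehand, and compound was applied dropwise onto the surface at 2 kg/ha as an acetone solution diluted in water with Tween 80.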

[2] = test system: Monochoria vaginalis; assay: Test for Herbicidal Effect in Flooding Treatment (#1), MONVA; details: flooding treatment at seeding, dose 2 kg/ha, visual observation on day 21
Outline: as §1

[3] = test system: Scirpus juncoides; assay: Test for Herbicidal Effect in Flooding Treatment (#1), SCIJU; details: flooding treatment at seeding, dose 2 kg/ha, visual observation on day 21
Outline: as §1

[4] = test system: Echinochloa crus-galli (L.) P. Beauv. var. formosensis Ohwi; assay: Test for Herbicidal Effect in Flooding Treatment (#2), ECHDG at 2-2.5 leaf stage; details: flooding treatment at 2-2.5 leaf stage, dose 0.2 kg/ha, visual observation on day 21
Outline: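 Scoring is a visual 0–5 scale of growth inhibition (0 below 10%, 5 at 90% or more or full withering), taken 21 days after treatment in a glasshouse. Dose was 0.2 kg/ha, applied as acetone/Tween 80 aqueous solution onto flooded soil once seedlings reached the 2–2.5 leaf stage.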

SMILES | ECHDG #1 herbicidal effect (growth inhibition grade) [1] | MONVA #1 herbicidal effect (growth inhibition grade) [2] | SCIJU #1 herbicidal effect (growth inhibition grade) [3] | ECHDG (2-2.5L) #2 herbicidal effect (growth inhibition grade) [4]
O=S(=O)(Cc1c(Cl)cccc1OCC(F)(F)F)c1ncc(Cl)s1 [Compound 1C-55] | 5 (Growth inhibition effect is equal to or greater than 90%, or complete withering is achieved) | 5 (Growth inhibition effect is equal to or greater than 90%, or complete withering is achieved) | 5 (Growth inhibition effect is equal to or greater than 90%, or complete withering is achieved) | 5 (Growth inhibition effect is equal to or greater than 90%, or complete withering is achieved)
O=S(=O)(Cc1c(F)cccc1OCCC(F)(F)F)c1ncc(Cl)s1 [Compound 1C-58] | 5 (Growth inhibition effect is equal to or greater than 90%, or complete withering is achieved) | 5 (Growth inhibition effect is equal to or greater than 90%, or complete withering is achieved) | 5 (Growth inhibition effect is equal to or greater than 90%, or complete withering is achieved) | 5 (Growth inhibition effect is equal to or greater than 90%, or complete withering is achieved)
O=S(=O)(Cc1c(Cl)cccc1OCCC(F)(F)F)c1ncc(Cl)s1 [Compound 1C-59] | 5 (Growth inhibition effect is equal to or greater than 90%, or complete withering is achieved) | 5 (Growth inhibition effect is equal to or greater than 90%, or complete withering is achieved) | 5 (Growth inhibition effect is equal to or greater than 90%, or complete withering is achieved) | 4 (Growth inhibition effect is equal to or greater than 70%, and less than 90%)
O=S(=O)(Cc1c(F)cccc1OCC(F)(F)C(F)F)c1ncc(Cl)s1 [Compound 1C-60, 5-chloro-2-{[2-(2,2,3,3-tetrafluoropropoxy)-6-fluorophenyl][methanesulfonyl]}-1,3-thiazole] | 5 (Growth inhibition effect is equal to or greater than 90%, or complete withering is achieved) | 5 (Growth inhibition effect is equal to or greater than 90%, or complete withering is achieved) | 5 (Growth inhibition effect is equal to or greater than 90%, or complete withering is achieved) | 5 (Growth inhibition effect is equal to or greater than 90%, or complete withering is achieved)
O=S(=O)(Cc1c(F)cccc1OCC(F)(F)C(F)(F)F)c1ncc(Cl)s1 [Compound 1C-61] | 5 (Growth inhibition effect is equal to or greater than 90%, or complete withering is achieved) | 5 (Growth inhibition effect is equal to or greater than 90%, or complete withering is achieved) | 5 (Growth inhibition effect is equal to or greater than 90%, or complete withering is achieved) | 5 (Growth inhibition effect is equal to or greater than 90%, or complete withering is achieved)
O=S(=O)(Cc1c(Cl)cccc1OCC(F)(F)C(F)(F)F)c1ncc(Cl)s1 [Compound 1C-62] | 5 (Growth inhibition effect is equal to or greater than 90%, or complete withering is achieved) | 5 (Growth inhibition effect is equal to or greater than 90%, or complete withering is achieved) | 5 (Growth inhibition effect is equal to or greater than 90%, or complete withering is achieved) | 4 (Growth inhibition effect is equal to or greater than 70%, and less than 90%)
O=S(=O)(Cc1c(F)cccc1OCCCC(F)(F)F)c1ncc(Cl)s1 [Compound 1C-63] | 5 (Growth inhibition effect is equal to or greater than 90%, or complete withering is achieved) | 5 (Growth inhibition effect is equal to or greater than 90%, or complete withering is achieved) | 5 (Growth inhibition effect is equal to or greater than 90%, or complete withering is achieved) | 3 (Growth inhibition effect equal to or greater than 50%, and less than 70%)
COc1ccc(Cl)c(CS(=O)(=O)c2ncc(Cl)s2)c1Cl [Compound 1C-73] | 5 (Growth inhibition effect is equal to or greater than 90%, or complete withering is achieved) | 5 (Growth inhibition effect is equal to or greater than 90%, or complete withering is achieved) | 5 (Growth inhibition effect is equal to or greater than 90%, or complete withering is achieved) | 5 (Growth inhibition effect is equal to or greater than 90%, or complete withering is achieved)
[2H]C([2H])(c1c(OCC)ccc(Cl)c1Cl)S(=O)(=O)c1ncc(Cl)s1 [Compound 1C-130, 5-chloro-2-{[2-ethoxy-5,6-dichlorophenyl][dideuterium(methanesulfonyl)]}-1,3-thiazole] | 5 (Growth inhibition effect is equal to or greater than 90%, or complete withering is achieved) | 5 (Growth inhibition effect is equal to or greater than 90%, or complete withering is achieved) | 5 (Growth inhibition effect is equal to or greater than 90%, or complete withering is achieved) | 5 (Growth inhibition effect is equal to or greater than 90%, or complete withering is achieved)
[2H]C([2H])(c1c(F)cccc1OC(F)F)S(=O)(=O)c1ncc(Cl)s1 [Compound 1C-131] | 5 (Growth inhibition effect is equal to or greater than 90%, or complete withering is achieved) | 5 (Growth inhibition effect is equal to or greater than 90%, or complete withering is achieved) | 5 (Growth inhibition effect is equal to or greater than 90%, or complete withering is achieved) | 5 (Growth inhibition effect is equal to or greater than 90%, or complete withering is achieved)
[2H]C([2H])(c1c(Cl)cccc1OC(F)F)S(=O)(=O)c1ncc(Cl)s1 [Compound 1C-132] | 5 (Growth inhibition effect is equal to or greater than 90%, or complete withering is achieved) | 5 (Growth inhibition effect is equal to or greater than 90%, or complete withering is achieved) | 5 (Growth inhibition effect is equal to or greater than 90%, or complete withering is achieved) | 5 (Growth inhibition effect is equal to or greater than 90%, or complete withering is achieved)
[2H]C([2H])(c1c(Cl)cccc1OC(F)(F)F)S(=O)(=O)c1ncc(Cl)s1 [Compound 1C-133] | 5 (Growth inhibition effect is equal to or greater than 90%, or complete withering is achieved) | 5 (Growth inhibition effect is equal to or greater than 90%, or complete withering is achieved) | 5 (Growth inhibition effect is equal to or greater than 90%, or complete withering is achieved) | 5 (Growth inhibition effect is equal to or greater than 90%, or complete withering is achieved)
[2H]C([2H])(c1ccccc1OCC(F)(F)F)S(=O)(=O)c1ncc(Cl)s1 [Compound 1C-134] | 5 (Growth inhibition effect is equal to or greater than 90%, or complete withering is achieved) | 5 (Growth inhibition effect is equal to or greater than 90%, or complete withering is achieved) | 5 (Growth inhibition effect is equal to or greater than 90%, or complete withering is achieved) | 5 (Growth inhibition effect is equal to or greater than 90%, or complete withering is achieved)
[2H]C([2H])(c1c(Cl)cccc1OCC(F)(F)F)S(=O)(=O)c1ncc(Cl)s1 [Compound 1C-135] | 5 (Growth inhibition effect is equal to or greater than 90%, or complete withering is achieved) | 5 (Growth inhibition effect is equal to or greater than 90%, or complete withering is achieved) | 5 (Growth inhibition effect is equal to or greater than 90%, or complete withering is achieved) | 5 (Growth inhibition effect is equal to or greater than 90%, or complete withering is achieved)
[2H]C([2H])(c1c(Cl)ccc(OC)c1F)S(=O)(=O)c1ncc(Cl)s1 [Compound 1C-136] | 5 (Growth inhibition effect is equal to or greater than 90%, or complete withering is achieved) | 5 (Growth inhibition effect is equal to or greater than 90%, or complete withering is achieved) | 5 (Growth inhibition effect is equal to or greater than 90%, or complete withering is achieved) | 5 (Growth inhibition effect is equal to or greater than 90%, or complete withering is achieved)
